Format in all cases: physicochemical
A short description of series [1]: Hygroscopicity of crystalline form.
The nature of series [2]: Dissolution in 900 mL FaSSIF medium at pH 6.5 (FIG. 20). The note with it: pH 6.5, capsules in blend. As to the method:
FIG. 20: Dissolution rates of different compositions in 900 mL FaSSIF medium at pH 6.5. The different compositions are: 25 mg ASD capsule HPMC AS MG 1/3 in blend; 50 mg ASD capsule HPMC AS MG 1/1 in blend; 50 mg ASD capsule EL100-55 1/1 in blend; 50 mg LFHG PEG1500 (liquid filled) capsule; 100 mg capsule amorphous API in blend; 25 mg ASD capsule EL100-55 1/3 in blend; and 100 mg capsule crystalline API in blend.

Series [3] is described as follows: Glass transition temperature (Tg) by DSC, Tg vs % RH. The settings on record: amorphous Compound A without polymer. As to the method:
The Tg vs RH results for HPMCAS-LG amorphous SDDs (FIG. 18 and Table 10) show the Tg's range from 111 to 119° C. under dry conditions and are depressed down to 52 to 59° C. at 75% RH. Both dry and wet Tg increase with increased drug loading.
Background: DSC measures the heat that a sample takes up or gives off during a temperature scan.

Series [4] can be described thus: 2-phase (SGF/FaSSIF) miniaturized dissolution of films. The note with it: SGF-FaSSIF, 37° C., films with 200 μg Compound A. The procedure:
In vitro, 2-phase (SGF/FaSSIF) miniaturized dissolution was performed, where the amount of dissolved compound A was monitored in function of time. Before starting the dissolution assay, the films were stored for one day at room temperature. By doing so, most of the residual solvent had evaporated. Actual dissolution experiments were performed in 96 1 mL glass vials using the Hamilton STAR plus liquid handling platform for both sampling and sample preparation. Before adding the dissolution media to the films, an equilibration time of approximately 60 minutes was needed to preheat the media to 37° C. After equilibration, 300 μL of preheated SGF (37° C., pH 1.3) was added to the amorphous solid dispersions. After 15 minutes of incubation in SGF, 600 μL of preheated concentrated FaSSIF (37° C., pH 10.5) was added to the samples. […] At predetermined time intervals, aliquots were withdrawn from the dissolution media and filtered through a 0.45 μm GHP membrane filter. Subsequently, the filtered solutions were quantitatively diluted (10×) with N-methylpyrrolidone (NMP) to prevent possible precipitation. The amount of dissolved compound A was determined by UPLC. Films were incubated at 37° C. throughout the entire assay. Experiments were performed in duplicate.

The nature of series [5]: Stability of amorphous formulations by XRD at normal and accelerated conditions. The procedure:
Stability of the prepared formulations of Compound A was measured by XRD at normal and accelerated conditions, showing that all the prepared formulations of the compound, be it alone or combined with a polymer, are amorphous.

Series [6] can be described thus: Crystalline conversion of isolated amorphous Compound A on storage.

Each structure is given as a SMILES string.

`O=C(Nc1ccnc(C(F)(F)F)c1)c1cnn(-c2cccc3c(=O)[nH]ccc23)c1C(F)(F)F` [Form I, 1-(1-oxo-1,2-dihydroisoquinolin-5-yl)-5-(trifluoromethyl)-N-[2-(trifluoromethyl)pyridin-4-yl]-1H-pyrazole-4-carboxamide]: in series [1], the hygroscopicity result is given as “hygroscopic behavior”. Besides, in series [2], the dissolution rate entry is reported as “dropped considerably”.

Turning to `O=C(Nc1ccnc(C(F)(F)F)c1)c1cnn(-c2cccc3c(=O)[nH]ccc23)c1C(F)(F)F` [amorphous form of Compound A, 1-(1-oxo-1,2-dihydroisoquinolin-5-yl)-5-(trifluoromethyl)-N-[2-(trifluoromethyl)pyridin-4-yl]-1H-pyrazole-4-carboxamide], the glass transition temperature in series [3] came to 133 °C; in series [3] (listed as spray dried Compound A), 132 °C. Besides, in series [4], the “initial release, concentration” value is 60 to 80 µg/mL. In addition, the XRD result in series [5] (40° C. closed 1M), in series [5] (40° C. closed 2M), in series [5] (40° C. closed 6M), in series [5] (40° C./75% RH open 6M), in series [5] (40° C/75% RH open 1M) and in series [5] (40° C/75% RH open 2M) was “amorph” throughout. Further, the XRD result in series [5] (50° C. closed 1M), in series [5] (50° C. closed 2M), in series [5] (50° C. closed 6M), in series [5] (RT closed 1M), in series [5] (RT closed 2M) and in series [5] (RT closed 6M) was “amorph” throughout. Besides, the XRD result in series [5] (RT/56% RH open 1M), in series [5] (RT/56% RH open 2M), in series [5] (RT/56% RH open 6M) and in series [5] (T0) was “amorph” throughout. Besides, in series [6] (6 MOS at 40°/75% RH, open-dish), the “solid state after storage (stability DSC data)” value is “still amorphous”. In addition, the “crystalline conversion after exposure” value in series [6] (10% RH, 50° C., 28 days) is recorded as “no crystalline conversion”; in series [6] (75% RH, 40° C., open condition, 6 months) it was “no crystalline conversion”; in series [6] (75% RH, 50° C., 28 days), “no crystalline conversion”; in series [6] (75% RH, 50° C., closed condition, 6 months), “no crystalline conversion”.

(Values after US20220056012A1, “AMORPHOUS FORM OF A MALT1 INHIBITOR AND FORMULATIONS THEREOF” (Janssen Pharmaceutica NV, priority 2020, published 2022).)
